Test results taken from patent US20250324972A1, “METHOD OF CONTROLLING NEMATODES” (priority 2022, published 2025).

Columns and labels:
[1] = system: Tomatoes of Aryman variety; experiment: Open field trial on tomato: phytotoxicity evaluation; assay type: in vivo
Description: An open field trial was conducted. Tomatoes of Aryman variety was used. The soil type was sandy loam.
Fertilizers were applied prior to bed formation. Plots were formed, with a total area of 25 m^2 per plot. Drip lines were laid in the plot beds (plot beds occupy half the field). Treatments were arranged in a randomized complete block design with two replications.
Fluensulfone emulsifiable concentrate (Nimitz® 480 EC) was used for the fluensulfone treatments. Additionally, comparative nematicides fluopyram (as Fluopyram® 500 SC) and carbofuran (as Carbofuran® 3% CG), were tested. Untreated control plots were formed for comparison.
In Table 1, time of application is expressed by DAT, which indicates the number of days relative to the date of planting.
Treatments 2 and 3 (of the invention): fluensulfone in the form of an emulsifiable concentrate (Nimitz® 480 EC) was applied at the day of planting (DAT=0), followed by a post-plant application twenty five days later (DAT=25). The application method consisted of the following steps. First, the soil was wetted by irrigation water. Then, at the day of planting, appropriate amounts of Nimitz® 480 EC were diluted in water and applied to achieve the application rates tabulated in Table 1. It was repeated on DAT=25. […]
Phytotoxicity was evaluated on DAT=7, 21, 32, and 46. […]

root-knot nematode = experiment: Open field trial on tomato: root galling assessed with the root galling index (Bridge and Page chart); assay type: in vivo
Description: The rating method is based on assigning an integer number in the interval from 0 (no knots on the roots) to 10 (all roots severely knotted indicative of plant death).
Treatments 2 and 3 (of the invention): fluensulfone in the form of an emulsifiable concentrate (Nimitz® 480 EC) was applied at the day of planting (DAT=0), followed by a post-plant application twenty five days later (DAT=25). The application method consisted of the following steps. First, the soil was wetted by irrigation water. Then, at the day of planting, appropriate amounts of Nimitz® 480 EC were diluted in water and applied to achieve the application rates tabulated in Table 1. […]
Root galling was assessed in the open-field trial, on DAT=25, 50, and 75, using the root galling index. […]

| SMILES | Phytotoxicity ([1]; entire range of application rates tested, evaluated on DAT=7, 21, 32, and 46) | average root galling indexes (RGI) (root-knot nematode; application initiated on the day of planting/transplanting, even seventy days after planting/transplanting) | root galling index (root-knot nematode; method of the invention, at least over 50 days and even 75 days after planting) | Phytotoxicity score ([1]; evaluated on DAT=7, 21, 32, and 46, fluopyram 500 SC 0 DAT @ 1250 ml/ha) |
| --- | --- | --- | --- | --- |
| O=S(=O)(CCC(F)=C(F)F)c1ncc(Cl)s1 [fluensulfone, 5-chloro-2-(3,4,4-trifluoro-but-3-ene-1-sulfonyl)-1,3-thiazole] | No phytotoxicity was observed | below 3 | below 2 |  |
| O=C(NCCc1ncc(C(F)(F)F)cc1Cl)c1ccccc1C(F)(F)F [fluopyram] |  |  |  | 65 |
